Test results from patent EP0257993B1, “Nucleic acid fragment encoding herbicide resistant plant acetolactate synthase” (priority 1986, dated 1988).

How the values were obtained:
alfalfa callus = assay: Resistant growth of transformed alfalfa callus and tissue; type: cell-based, Medicago sativa cv. Rangelander
Experimental: These explants were dipped into a log phase Agrobacterium culture prepared as described in EXAMPLE I, transferred to fresh co-cultivation plates, and cultured at 24°C with 16 hr. days for 3 days.
The bacteria were killed by washing the explants for 3 hrs. with gentle agitation in washing media, and cultured on fresh selection plates.
The explants were subcultured every 3-4 weeks. […] When callus became more organized, (areas are darker green and more compact) it was transferred to fresh maturation media.

tobacco plant cells = assay: Herbicide resistance in plant cells transformed with site specific mutant sugarbeet ALS gene; type: cell-based; conditions: 2x10^5 starting plant cells; for Kanamycin^R: kanamycin at 50ppm; for Chlorsulfuron^R: chlorsulforon at 2ppb
Experimental: Introduction of the ALS genes into herbicide sensitive tobacco and sugarbeet, by co-cultivation of the plant cells with A. tumefaciens carrying the ALS genes in the binary vector, was performed as described in EXAMPLE I and EXAMPLE II. Herbicide resistant transformants were obtained with three of the four mutant sugarbeet ALS genes. The frequency of obtaining herbicide resistant transformants was lower than that for kanamycin resistant transformants, and also lower than the frequency of herbicide resistant transformants obtained when the tobacco SURB-Hra gene was used. […] This may reflect either insufficient nucleotide regulatory sequences upstream or downstream of the mutant sugarbeet ALS genes in the DNA fragments used or poor utilization of sugarbeet nucleotide regulatory sequences in tobacco or both. […]
Gene introductions were done by standard co-cultivation method. […] Selection was with chlorsulforon at 2ppb or kanamycin at 50ppm.

[1] = test system: Sensitive N. tabacum Cells; assay: Co-cultivation of N. tabacum protoplasts with A. tumefaciens, colony formation on selective media; type: cell-based, Nicotiana tabacum var. Wisconsin 38; conditions: for Number of Colony Forming Units derived from 10^5 Protoplast Equivalents One Month after Co-cultivation: Table 7
Experimental: Sterile tobacco (Nicotiana tabacum var. Wisconsin 38) plants were cultured from 1 cm apical or auxillary explants on OMS Medium in Magenta Boxes under a cycle of a 16 hour light period (6,000-8,000 lux) followed by an 8 hour dark period. When the plants were 5-7 weeks old, fully expanded leaves (3-6 leaves down from the apex) were removed, and two leaves each were placed, top surface down, on 20 mL of protoplast isolation medium in a 100 x 25 mm petri dish. The leaves were then submerged and finely divided with a sharp surgical blade. The midrib was held and the cuts were made outward from it towards the leaf margin at approximately 2 mm intervals. The petri dishes were then sealed with parafilm and the macerated tissue incubated overnight (14-17 hours) in darkness at 27-29°C with gentle gyrotory agitation (20-25 rpm).
The glass tubing was placed in a Babcock bottle, and the cheesecloth was wetted with K3/S(1) Medium. The digested leaf tissue from two petri dishes was carefully poured into the funnel. The cheesecloth was rinsed and expressed into the bottle. The loaded bottles were topped with K3/S(1) Medium, covered with foil and centrifuged at approximately 100 x g for 10 minutes. The floating protoplasts (1-2 mL) were collected with a 1 mL serological pipette and placed in 20 mL of K3/S(1) Medium in another Babcock bottle. After resuspending the protoplasts by gently swirling, the Babcock bottles were topped and centrifuged as before. The floating protoplasts (1-2 mL) were collected as described above and placed in 30 mL of K3/G(1) Medium. The protoplasts were counted in a hemacytometer, and the volume was adjusted to give 1 x 10^+5 protoplasts/mL. 5 mL aliquots of the protoplasts were plated in petri dishes [100 x 20 mm tissue-culture petri dishes (Corning); these dishes were used in all subsequent protoplast manipulations] and cultured in darkness.
When the optical density (at 550 nm) of the A. tumefaciens cultures was 0.6 (log phase culture), approximately 6 hours after dilution, the bacteria were added to plant cells at a multiplicity of approximately 50 bacteria/plant cell (an optical density of 1.0 at 550 nm = 1.4 x 10^9 bacteria). The bacteria and plant cell mixture was co-cultivated for 66 hours at 24°C in low light (approximately 500 lux). Non-transformed protoplast controls were incubated similarly, but without agrobacteria. The following protocol is carried out for each co-cultivation (transformed cells with different agrobacteria, as well as non-transformed cells).
Co-cultivation was terminated by adding 20 mL of a 1:1 mixture of K3/G(2) Medium:C Medium supplemented with 500 mg/liter of cefotaxime (to select against the agrobacteria) to 5 mL of the co-cultivation mixture. The co-cultivated cells were gently and thoroughly resuspended in the new medium by mixing with a 5 or 10 mL serological pipette. The cell density was 2 x 10^4 protoplast equivalents/mL (protoplast equivalents = initial protoplasts, assuming 100% recovery and cell survival) and the osmoticum was 0.35 M. Three 5 mL aliquots of each culture were dispensed into fresh petri dishes.
From this juncture until the cells were embedded in solid medium, the cells were cultured in low light (500-1500 lux) without motion and were aseptically transferred to different media. […] For these transfers, the contents of each plate were collected with a 5 mL serological pipette, placed in separate 15 mL polystyrene conical centrifuge tubes and centrifuged at approximately 50 x g for 5-10 minutes. The supernatant fluid was removed with a pipette without disrupting the loose pellet. Pellets of co-cultivated cells from each plate were then gently resuspended in the appropriate fresh medium.
Each of these cultures was returned to the petri dishes from which they were taken; in this way not all cells needed to be pelleted to effect a medium exchange with minimal cell loss.

melon callus = assay: Kanamycin selection of melon cotyledon explants; type: cell-based, Cucumis melo cv. Amarillo Oro; conditions: kanamycin at 100µm/l
[2] = test system: Cells of N.tabacum cv. W38; assay: Level of chlorsulfuron resistance in transformed N. tabacum colonies; type: cell-based
ALS = ALS assay, wild type Brassica napus; type: biochemical
Experimental: Keep on ice. • 2. […] 16K rpm, 4°C. • 4. […] Incubate on ice for 30 minutes. • 6. […] Decant supernatant. • 7. Resuspend pellet in 1 ml cold column buffer. • 8. […] Let this run through column. • 9. Elute proteins with 2X volume of extract loaded. […] Incubate reaction for 1 hour, 30°C. • 12. […] Spin in microfuge 5 minutes. • 13. […] Read at OD 530.

[3] = Gene Origin Sugarbeet, ala(122)-pro
[4] = Gene Origin Sugarbeet, pro(197)-ala/trp(591)-leu
[5] = Gene Origin Sugarbeet, pro(197)-ala
[6] = Gene Origin Sugarbeet, trp(591)-leu
[7] = Gene Origin Tobacco, pro(197)-ala/trp(591)-leu

For `NC[C@H]1O[C@H](O[C@H]2[C@H](O)[C@@H](O[C@H]3O[C@H](CO)[C@@H](O)[C@H](N)[C@H]3O)[C@H](N)C[C@@H]2N)[C@H](O)[C@@H](O)[C@@H]1O` [Kanamycin], the “explants that developed callus resistant to kanamycin” value (alfalfa callus; kanamycin at 100mg/L) was “Less than 1%”, the “Kanamycin^R” value (tobacco plant cells; [3]) was 415 and the “Kanamycin^R” value (tobacco plant cells; [4]) was 1362. The “Kanamycin^R” value (tobacco plant cells; [5]) was 1073, the “Kanamycin^R” value (tobacco plant cells; [6]) was 1080 and the “Kanamycin^R” value (tobacco plant cells; [7]) was 1083. The “Number of colony forming units derived from 10^5 protoplast equivalents one month after co-cultivation” value ([1]; Table 4, N.t. (non-cocultured control plant cells), Kanamycin 50 µg/mL) was 0, the “Number of colony forming units derived from 10^5 protoplast equivalents one month after co-cultivation” value ([1]; Table 4, N.t./P145 (pAGS145, herbicide-sensitive ALS from phage clone 1), Kanamycin 50 µg/mL) was 5.9 x 10^2 and the “Number of colony forming units derived from 10^5 protoplast equivalents one month after co-cultivation” value ([1]; Table 5, N.t. (non-cocultured control plant cells), Kanamycin 50 µg/mL) was 0. For the same compound, the “Number of colony forming units derived from 10^5 protoplast equivalents one month after co-cultivation” value ([1]; Table 5, N.t./P112 (pAGS112, kanamycin resistance vector), Kanamycin 50 µg/mL) was 2.5 x 10^3, the “Number of colony forming units derived from 10^5 protoplast equivalents one month after co-cultivation” value ([1]; Table 5, N.t./p152 (pAGS152, phage clone 3), Kanamycin 50 µg/mL) was 6.2 x 10^2 and the “Number of Colony Forming Units derived from 10^5 Protoplast Equivalents One Month after Co-cultivation” value ([1]; N.t. (non co-cultured plant cells), Kanamycin 50 ug/ml) was 0. For the same compound, the “Number of Colony Forming Units derived from 10^5 Protoplast Equivalents One Month after Co-cultivation” value ([1]; N.t./P312 (pAGS312, C3 subclone, φ31 orientation 1), Kanamycin 50 ug/ml) was 65, the “Number of Colony Forming Units derived from 10^5 Protoplast Equivalents One Month after Co-cultivation” value ([1]; N.t./p152 (pAGS152, S4/Hra subclone), Kanamycin 50 ug/ml) was 88 and the “Number of Colony Forming Units derived from 10^5 Protoplast Equivalents One Month after Co-cultivation” value ([1]; N.t./p313 (pAGS313, C3 subclone, φ31 orientation 2), Kanamycin 50 ug/ml) was 48. For the same compound, the “Number of Colony Forming Units derived from 10^5 Protoplast Equivalents One Month after Co-cultivation” value ([1]; N.t./p351 (pAGS351, C3 subclone, φ35), Kanamycin 50 ug/ml) was 139, the “Number of Colony Forming Units derived from 10^5 Protoplast Equivalents One Month after Co-cultivation” value ([1]; N.t./p381 (pAGS381, C3 subclone, φ38), Kanamycin 50 ug/ml) was 87 and the “explants that developed callus resistant to kanamycin” value (melon callus) was “Approximately 70%”.
With `COc1nc(C)nc(NC(=O)NS(=O)(=O)c2ccccc2Cl)n1` [chlorsulfuron] the “resistance of kanamycin resistant sectors” value (alfalfa callus; chlorsulfuron at 50 ppb) was “resistant”, the “chlorsulfuron concentration at which transformant tissue was able to grow” value (alfalfa callus; one transformant) was 1000 ppb and the “chlorsulfuron concentration at which transformant tissue was able to grow” value (alfalfa callus; the other two transformants) was 5000 ppb. For the same compound, the “Chlorsulfuron^R” value (tobacco plant cells; [3]) was 0, the “Chlorsulfuron^R” value (tobacco plant cells; [4]) was 91 and the “Chlorsulfuron^R” value (tobacco plant cells; [5]) was 35. For the same compound, the “Chlorsulfuron^R” value (tobacco plant cells; [6]) was 2, the “Chlorsulfuron^R” value (tobacco plant cells; [7]) was 698 and the “chlorsulfuron resistance conferred in transformed tobacco calluses” value ([2]; 8.3 kb DNA fragment (SURB-Hra)) was “up to 2000 ppb”. The “concentration colonies could tolerate” value ([2]; colonies derived from co-cultivation with A. tumefaciens containing pAGS152) was “up to 2000 ppb”, the “concentration at which colonies are sensitive” value ([2]; wild type colonies) was 2 ppb and the “chlorsulfuron resistance conferred in transformed tobacco calluses” value ([1]; 6.3 kb DNA fragment (SURA-C3)) was 2 ppb. The “Number of colony forming units derived from 10^5 protoplast equivalents one month after co-cultivation” value ([1]; Table 4, N.t. (non-cocultured control plant cells), Chlorsulfuron 2 ng/mL) was 0, the “Number of colony forming units derived from 10^5 protoplast equivalents one month after co-cultivation” value ([1]; Table 4, N.t./P145 (pAGS145, herbicide-sensitive ALS from phage clone 1), Chlorsulfuron 2 ng/mL) was 0 and the “Number of colony forming units derived from 10^5 protoplast equivalents one month after co-cultivation” value ([1]; Table 5, N.t. (non-cocultured control plant cells), Chlorsulfuron 2 ng/mL) was 0. For the same compound, the “Number of colony forming units derived from 10^5 protoplast equivalents one month after co-cultivation” value ([1]; Table 5, N.t./P112 (pAGS112, kanamycin resistance vector), Chlorsulfuron 2 ng/mL) was 0, the “Number of colony forming units derived from 10^5 protoplast equivalents one month after co-cultivation” value ([1]; Table 5, N.t./p152 (pAGS152, phage clone 3), Chlorsulfuron 2 ng/mL) was 6.5 x 10^2 and the “Number of Colony Forming Units derived from 10^5 Protoplast Equivalents One Month after Co-cultivation” value ([1]; N.t. (non co-cultured plant cells), Chlorsulfuron 2 ng/ml) was 0. For the same compound, the “Number of Colony Forming Units derived from 10^5 Protoplast Equivalents One Month after Co-cultivation” value ([1]; N.t./P312 (pAGS312, C3 subclone, φ31 orientation 1), Chlorsulfuron 2 ng/ml) was 0, the “Number of Colony Forming Units derived from 10^5 Protoplast Equivalents One Month after Co-cultivation” value ([1]; N.t./p152 (pAGS152, S4/Hra subclone), Chlorsulfuron 2 ng/ml) was 83 and the “Number of Colony Forming Units derived from 10^5 Protoplast Equivalents One Month after Co-cultivation” value ([1]; N.t./p313 (pAGS313, C3 subclone, φ31 orientation 2), Chlorsulfuron 2 ng/ml) was 0. The “Number of Colony Forming Units derived from 10^5 Protoplast Equivalents One Month after Co-cultivation” value ([1]; N.t./p351 (pAGS351, C3 subclone, φ35), Chlorsulfuron 2 ng/ml) was 32, the “Number of Colony Forming Units derived from 10^5 Protoplast Equivalents One Month after Co-cultivation” value ([1]; N.t./p381 (pAGS381, C3 subclone, φ38), Chlorsulfuron 2 ng/ml) was 18 and the “Percent Uninhibited ALS Activity” value (ALS; 1ppb) was 86.6%. For the same compound, the “Percent Uninhibited ALS Activity” value (ALS; 10ppb) was 28.2%, the “Percent Uninhibited ALS Activity” value (ALS; 100ppb) was 10.1% and the “Percent Uninhibited ALS Activity” value (ALS; 1000ppb) was 7.6%.
